Results as given in ChEMBL document CHEMBL5131432, “Novel 2,4-disubstituted quinazoline analogs as antibacterial agents with improved cytotoxicity profile: Modification of the benzenoid part” (Bioorg Med Chem Lett, 2022).
≈ marks a conversion by molar mass, not a printed value.

Key:
Enterococcus faecium = assay: Antibacterial activity against Enterococcus faecium DSM-20477 assessed as bacterial growth inhibition; type: functional
Staphylococcus aureus [1] = assay: Antibacterial activity against methicillin-sensitive Staphylococcus aureus Newman assessed as bacterial growth inhibition; type: functional
Staphylococcus aureus [2] = assay: Antibacterial activity against methicillin-resistant and vancomycin-intermediate Staphylococcus aureus Mu50 assessed as bacterial growth inhibition; type: functional
Streptococcus pneumoniae [3] = assay: Antibacterial activity against Streptococcus pneumoniae DSM-20566 assessed as bacterial growth inhibition; type: functional
Escherichia coli [4] = assay: Antibacterial activity against Escherichia coli K12 harbouring TolC-deficient mutant assessed as bacterial growth inhibition; type: functional
Enterococcus faecalis = assay: Antibacterial activity against Enterococcus faecalis DSM-20478 assessed as bacterial growth inhibition; type: functional
Staphylococcus aureus [5] = assay: Antibacterial activity against methicillin-resistant Staphylococcus aureus N315 assessed as bacterial growth inhibition; type: functional
[6] = test system: Mycolicibacterium smegmatis; assay: Antibacterial activity against Mycobacterium smegmatis mc2 155 assessed as bacterial growth inhibition; type: functional
Escherichia coli [7] = assay: Antibacterial activity against wild type Escherichia coli DSM-11116 assessed as bacterial growth inhibition; type: functional
Streptococcus pneumoniae [8] = assay: Antibacterial activity against penicillin-resistant Streptococcus pneumoniae DSM-11865 assessed as bacterial growth inhibition; type: functional
[9] = Stability of the compound in presence of 25kGy gamma irradiation assessed as change in mass and purity by LC-MS analysis; type: physicochemical
[10] = Chemical stability of compound in DMSO assessed as change in mass and purity incubated for 2 days by LC-MS analysis; type: physicochemical; conditions: 48 h; time 2 day
[11] = Chemical stability of compound in DMSO assessed as change in physico-chemical properties incubated for 2 days; type: physicochemical; conditions: 48 h; time 2 day
[12] = Chemical stability of compound in DMSO assessed as change in retardation factor incubated for 2 days; type: physicochemical; conditions: 48 h; time 2 day
[13] = Cytotoxicity against human HepG2 cells assessed as inhibition of cell growth; type: toxicity, cell-based

SMILES | MIC (Enterococcus faecium) | MIC (Staphylococcus aureus [1]) | MIC (Staphylococcus aureus [2]) | MIC (Streptococcus pneumoniae [3]) | MIC (Escherichia coli [4]) | MIC (Enterococcus faecalis) | MIC (Staphylococcus aureus [5]) | MIC [6] | MIC (Escherichia coli [7]) | MIC (Streptococcus pneumoniae [8]) | Stability [9] | Stability [10] | Stability [11] | Stability [12] | IC50 [13]
CCCCNc1nc(SCCCC)nc2ccc(Cl)cc12 | > 128 µg/mL | > 128 µg/mL | > 128 µg/mL | > 128 µg/mL | > 128 µg/mL | > 128 µg/mL | > 128 µg/mL | > 128 µg/mL | > 128 µg/mL | > 128 µg/mL | – | – | – | – | –
CCCCNc1nc(SCCCC)nc2ccc(-c3ccc(C(=O)O)cc3)cc12 | > 128 µg/mL | > 128 µg/mL | > 128 µg/mL | > 128 µg/mL | > 128 µg/mL | > 128 µg/mL | > 128 µg/mL | > 128 µg/mL | > 128 µg/mL | > 128 µg/mL | – | – | – | – | –
CCCCNc1nc(SCCCC)nc2c1cnn2CCCC | > 128 µg/mL | > 128 µg/mL | > 128 µg/mL | 8 µg/mL (≈ 23.8 µM) | > 128 µg/mL | > 128 µg/mL | > 128 µg/mL | > 128 µg/mL | > 128 µg/mL | > 128 µg/mL | – | – | – | – | –
CCCCNc1nc(SCCCC)nc2ccc(-c3cccc(C#N)c3)cc12 | > 128 µg/mL | > 128 µg/mL | > 128 µg/mL | > 128 µg/mL | > 128 µg/mL | > 128 µg/mL | > 128 µg/mL | > 128 µg/mL | > 128 µg/mL | > 128 µg/mL | – | – | – | – | –
CCCCNc1nc(SCCCC)nc2cc(Br)ccc12 | > 128 µg/mL | > 128 µg/mL | > 128 µg/mL | > 128 µg/mL | > 128 µg/mL | > 128 µg/mL | > 128 µg/mL | > 128 µg/mL | > 128 µg/mL | > 128 µg/mL | – | – | – | – | –
CCCCNc1nc(SCCCC)nc2ccc(Br)cc12 | > 128 µg/mL | > 128 µg/mL | > 128 µg/mL | > 128 µg/mL | > 128 µg/mL | > 128 µg/mL | > 128 µg/mL | > 128 µg/mL | > 128 µg/mL | > 128 µg/mL | – | – | – | – | –
CCCCNc1nc(SCCCC)nc2cc(F)ccc12 | > 128 µg/mL | > 128 µg/mL | > 128 µg/mL | > 128 µg/mL | > 128 µg/mL | > 128 µg/mL | > 128 µg/mL | > 128 µg/mL | > 128 µg/mL | > 128 µg/mL | Stable | Stable | Stable | Stable | –
CCCCNc1nc(SCCCC)nc2sccc12 | > 128 µg/mL | 8 µg/mL (≈ 27.1 µM) | > 128 µg/mL | 8 µg/mL (≈ 27.1 µM) | 8 µg/mL (≈ 27.1 µM) | > 128 µg/mL | 32 µg/mL (≈ 108 µM) | 16 µg/mL (≈ 54.1 µM) | > 128 µg/mL | 8 µg/mL (≈ 27.1 µM) | – | – | – | – | > 37 µg/mL
CCCCNc1nc(SCCCC)nc2n[nH]cc12 | > 128 µg/mL | > 128 µg/mL | > 128 µg/mL | > 128 µg/mL | 4 µg/mL (≈ 14.3 µM) | > 128 µg/mL | > 128 µg/mL | > 128 µg/mL | > 128 µg/mL | > 128 µg/mL | Stable | Stable | Stable | Stable | –
CCCCNc1nc(SCCCC)nc2ccc(-c3ccncc3)cc12 | > 128 µg/mL | > 128 µg/mL | > 128 µg/mL | > 128 µg/mL | > 128 µg/mL | > 128 µg/mL | > 128 µg/mL | > 128 µg/mL | > 128 µg/mL | > 128 µg/mL | – | – | – | – | –
CCCCNc1nc(SCCCC)nc2ccc(NC(=O)NCC)cc12 | > 128 µg/mL | > 128 µg/mL | > 128 µg/mL | > 128 µg/mL | > 128 µg/mL | > 128 µg/mL | > 128 µg/mL | > 128 µg/mL | > 128 µg/mL | > 128 µg/mL | – | – | – | – | –
CCCCNc1nc(SCCCC)nc2ccc(F)cc12 | > 128 µg/mL | > 128 µg/mL | > 128 µg/mL | > 128 µg/mL | > 128 µg/mL | > 128 µg/mL | > 128 µg/mL | > 128 µg/mL | > 128 µg/mL | > 128 µg/mL | – | – | – | – | –
CCCCNc1nc(SCCCC)nc2ccc(-c3ccccc3)cc12 | > 128 µg/mL | > 128 µg/mL | > 128 µg/mL | > 128 µg/mL | > 128 µg/mL | > 128 µg/mL | > 128 µg/mL | > 128 µg/mL | > 128 µg/mL | > 128 µg/mL | Stable | Stable | Stable | Stable | –
